Values of other authors in patent publication US10773008B2, “Medicated patch for preventing exit site infections during peritoneal dialysis” (Universiti Brunei Darussalam, priority 2016, dated 2020).

Columns and labels:
[1] = topical mupirocin
[2] = not given; remark: listed apart in the source
[3] = in vivo

bioavailability [1]: 0.24%
PKa: 4.83
log P [2]: 2.45
half-life [3]: 20 to 40 min
Structure (SMILES): C/C(=C\C(=O)OCCCCCCCCC(=O)O)C[C@@H]1OC[C@H](C[C@@H]2O[C@H]2[C@@H](C)[C@H](C)O)[C@@H](O)[C@H]1O [mupirocin]
